What all share (test): DTP human tumour cell line panel, 48 h
Assay [1] deals with A498 renal.
For assay [2], the system named is CCRF-CEM leukemia.
In assay [3] the test system is COLO 205 colon.
Assay [4] relates to DU-145 prostate.
For assay [5], the system named is HCC-2998 colon.
For assay [6], the system named is HCT-15 colon.
Assay [7] relates to IGROV1 ovarian.
For assay [8], the system named is M14 melanoma.
Assay [9] has as its system MOLT-4 leukemia.
In assay [10] the test system is NCI-H460 lung.
The subject of assay [11] is OVCAR-3 ovarian.
In assay [12] the test system is SK-MEL-28 melanoma.
For assay [13], the system named is SNB-19 CNS.
The subject of assay [14] is T-47D breast.
For assay [15], the system named is U251 CNS.
Assay [16] concerns HT29 colon.
Assay [17] has as its system KM12 colon.
Assay [18] deals with LOX IMVI melanoma.
The subject of assay [19] is NCI-H23 lung.
Assay [20] has as its system NCI-H522 lung.

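Protocol summary: plate cells (96-well), add compound at 5 concentrations, incubate 48 h, interpolate endpoints linearly. At the TGI there is no net growth.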

Broadly, the TGI is the concentration giving total growth inhibition. Regarding `CC(=O)c1ccc(N2CCN(c3c(O)c4c(c(O)c3Cl)C(=O)C=CC4=O)CC2)cc1`, the concentration for total growth inhibition (TGI) in [1] was 33.7 µM; in assay [2] it was 2.07 µM; in assay [3], 8.91 µM; in assay [4], 31.2 µM; in [5], 37.4 µM; in assay [6], above 100 µM. Besides, the concentration for total growth inhibition (TGI) is 15.5 µM in assay [7]; 6.76 µM in [8]; 4.57 µM in [9]; 41 µM in [10]; 18.2 µM in assay [11]; 16.8 µM in [12]. In addition, the total growth inhibition concentration (TGI) in assay [13] is 35.7 µM; in assay [14], 10.4 µM; in [15] it was 11.9 µM.

Regarding `CCOC(=O)C1c2[nH]c3ccccc3c2CCN1C(=O)c1ccco1` (centres undefined), the TGI in [1], in assay [2], in [3], in assay [4], in assay [5] and in [6] was above 10 µM throughout. The concentration for total growth inhibition (TGI) in [16], in assay [7], in [17], in [8], in assay [9] and in assay [11] was above 10 µM throughout. Further, the TGI in [12], in assay [13], in assay [14] and in assay [15] was above 10 µM in each case.

On to `OC(c1ccc(F)cc1)C(F)(F)c1nc(-c2ccccc2)no1` (centres undefined), for which the concentration for total growth inhibition (TGI) in assay [1] is 39.2 µM; in assay [2] it was 52.2 µM; in assay [4] it was 50.4 µM; in assay [6], 63 µM; in assay [16], 33.4 µM; in [7] it was above 100 µM. The TGI in assay [18] is above 100 µM; in assay [8] it was 32.7 µM; in [19], 74.7 µM; in assay [10], 74.7 µM; in [20] it was above 100 µM; in assay [11] it was 30.6 µM. The TGI in assay [12] was above 100 µM; in assay [13], 64.2 µM; in assay [14] it was 68.3 µM; in assay [15], 29.2 µM.

In the case of `COc1cc(COC(=O)N2CCCCC2C(=O)O)c([N+](=O)[O-])cc1OC` (centres undefined), the TGI in assay [1], in assay [2], in assay [3], in assay [4], in assay [5] and in [6] was above 100 µM in each case. Further, the TGI in [16], in assay [7], in assay [17], in [8], in assay [9] and in [19] was above 100 µM in each case. Further, the TGI in assay [10], in assay [11], in [12], in assay [13], in assay [14] and in [15] was above 100 µM throughout.

Consider `C=CC1(c2ccc3ccccc3c2)OCC(CC)(CC)CO1`, for which the concentration for total growth inhibition (TGI) in assay [2] was 40.1 µM; in [3], 31.8 µM; in [4] it was above 100 µM; in assay [5], 37.3 µM; in assay [6] it was 35.1 µM; in [16], 57.5 µM. The total growth inhibition concentration (TGI) was 52.3 µM in assay [7]; 40.6 µM in [17]; 34.5 µM in assay [18]; 60.6 µM in assay [8]; 38.8 µM in assay [9]; 49.3 µM in assay [19]. Moreover, the TGI in assay [10] is 46.8 µM; in [20] it was 50.9 µM; in assay [11] it was 51.5 µM; in [12], above 100 µM; in assay [13], 36.3 µM; in assay [14], 52.2 µM. The same compound registered a concentration for total growth inhibition (TGI) in assay [15] of 42 µM.

Turning to `COC(=O)c1cc(C)n2c1CS[C@@H]2c1ccccc1`, the TGI is 88 µM in assay [1]; above 100 µM in assay [2]; 80 µM in assay [3]; above 100 µM in assay [4]; above 100 µM in assay [6]; above 100 µM in [16]. For the same compound, the TGI is above 100 µM in assay [7]; above 100 µM in assay [17]; above 100 µM in assay [18]; 73.4 µM in assay [8]; 71.1 µM in assay [9]; above 100 µM in assay [19]. Besides, the TGI was 82 µM in [20]; above 100 µM in assay [11]; above 100 µM in assay [12]; above 100 µM in assay [13]; 93.1 µM in assay [14]; above 100 µM in assay [15].

Consider `CSc1c(CC(=O)O)n(Cc2ccccc2)c2ccccc12`, for which the TGI in assay [1], in [2], in [3], in [4], in assay [6] and in assay [16] was above 100 µM in each case. The TGI in assay [7], in assay [17], in assay [18], in [8], in assay [9] and in assay [19] was above 100 µM throughout. The TGI in assay [10], in assay [20], in assay [11], in assay [12], in assay [13] and in assay [14] was above 100 µM throughout. Further, the total growth inhibition concentration (TGI) in assay [15] was above 100 µM.

As for `OCCOCCN1CCN(c2nc(N3CCCC3)c3nc(Cl)c(NCc4ccccc4)nc3n2)CC1`, the concentration for total growth inhibition (TGI) was determined as 32.9 µM in assay [2]; 21.7 µM in [3]; 25.3 µM in [4]; 15 µM in [5]; 15.3 µM in assay [6]; 13.7 µM in assay [16]. Further, the TGI in assay [7] was 33.9 µM; in assay [17], 26.8 µM; in assay [18] it was 23 µM; in assay [8], 24.8 µM; in assay [9] it was 27.8 µM; in assay [19], 31.4 µM. Moreover, the TGI was found to be 24.7 µM in assay [10]; 31.5 µM in [20]; 29.2 µM in [11]; 30.2 µM in assay [12]; 29.8 µM in [13]; 30.6 µM in assay [14]. This compound gave a TGI in assay [15] of 25.5 µM.

Regarding `COc1ccc(C(=O)/C=C2\c3ccccc3C(=O)N2C)cc1`, the concentration for total growth inhibition (TGI) in [1], in assay [2], in assay [3], in assay [4], in assay [6] and in assay [16] was above 100 µM each time. The TGI in assay [7], in assay [17], in assay [18], in assay [8], in assay [9] and in [19] was above 100 µM in each case. The total growth inhibition concentration (TGI) in assay [10], in [20], in assay [11], in [12], in assay [13] and in assay [14] was above 100 µM throughout. The TGI in [15] is above 100 µM.

Turning to `Cc1cc(=O)oc2c(CNC(C)C(=O)O)c(O)ccc12` (centres undefined), the TGI in [2], in [3], in [4], in assay [5], in [6] and in assay [16] was above 100 µM each time. The total growth inhibition concentration (TGI) in assay [7], in assay [17], in assay [18], in [8], in assay [9] and in [19] was above 100 µM in each case. Also, the TGI in assay [10], in [20], in assay [11], in [12], in assay [13] and in [14] was above 100 µM throughout. Moreover, the TGI in assay [15] was above 100 µM.

Take `CC1CC(=O)N2CCCNC2=C1C#N` (centres undefined): the TGI in assay [2], in [3], in assay [4], in [5], in [6] and in [16] was above 100 µM in each case. The concentration for total growth inhibition (TGI) in assay [7], in [17], in assay [18], in [8], in [9] and in assay [19] was above 100 µM throughout. The TGI in assay [10], in assay [20], in assay [11], in assay [12], in assay [13] and in assay [14] was above 100 µM throughout. In assay [15], this compound registered a TGI above 100 µM.

In the case of `COc1c(C(=O)/C(=N/Nc2ccccc2)C(C)=O)c(O)c(OC)c2occc12`, the TGI in assay [2], in assay [3], in assay [4], in [5], in [6] and in assay [16] was above 100 µM each time. In addition, the concentration for total growth inhibition (TGI) in assay [7], in assay [17], in [18], in assay [8], in assay [9] and in assay [19] was above 100 µM in each case. Further, the concentration for total growth inhibition (TGI) in assay [10], in assay [20], in [11], in [12], in [13] and in assay [14] was above 100 µM in each case. The same compound registered a TGI in assay [15] above 100 µM.

On to `NC(=O)Cc1ncn(-c2ccccc2)n1`, for which the total growth inhibition concentration (TGI) in assay [1], in [2], in assay [3], in assay [4], in assay [6] and in assay [16] was above 100 µM throughout. Further, the TGI in assay [7], in assay [17], in assay [18], in assay [8], in [9] and in [19] was above 100 µM throughout. For the same compound, the total growth inhibition concentration (TGI) in assay [20], in [11], in assay [13] and in assay [14] was above 100 µM throughout.

Consider `COc1ccc(OC)c(C2CCCc3c2cnc2nc(N)nc(N)c32)c1` (centres undefined), for which the total growth inhibition concentration (TGI) in assay [1], in assay [2], in assay [3], in assay [4], in [6] and in [16] was above 100 µM in each case. Further, the TGI in assay [7], in assay [17], in [18], in [8], in [9] and in [19] was above 100 µM each time. Further, the TGI in assay [10], in [20], in assay [11], in assay [12], in [13] and in assay [14] was above 100 µM in each case. The compound also returned a TGI in assay [15] above 100 µM.

`O=C1NCC2(CCN(Cc3ccccc3)CC2)N1`: the TGI in assay [2], in assay [3], in assay [4], in assay [5], in [6] and in assay [16] was above 100 µM throughout. In addition, the TGI in assay [7], in assay [17], in assay [18], in [8], in assay [9] and in assay [19] was above 100 µM throughout. Besides, the TGI in assay [10], in [20], in [11], in [12], in assay [13] and in [14] was above 100 µM in each case. The compound also showed a concentration for total growth inhibition (TGI) in assay [15] above 100 µM.

For the compound `SC[C@@H]1COC[C@H](CS)S1`, the TGI in assay [2], in [3], in assay [4], in [5], in [6] and in [16] was above 100 µM in each case. The TGI in assay [7], in assay [17], in [18], in assay [8], in assay [9] and in [19] was above 100 µM in each case. Further, the TGI in assay [10], in [20], in assay [11], in [12], in [13] and in [14] was above 100 µM throughout. The compound further displayed a concentration for total growth inhibition (TGI) in [15] above 100 µM.

Source of the values: PubChem BioAssay (NCI).
